# Entries after “also recorded” stand apart in the source; their conditions may differ. Like-named read-outs stand apart in the source and are kept apart here.
# What was measured:
# [1] = system: PMNs isolated from healthy adults; test: NET formation in healthy adult PMNs induced by COVID-19 patient plasma (confocal microscopy, cell-free DNA fluorescence assay); type: cell-based, human; conditions: peptide 1 nM, 1-hour preincubation, undiluted COVID-19 plasma 2 hours
# [2] = system: healthy neutrophils; type: cell-based, human; conditions: healthy neutrophils pretreated
# [3] = system: LPS-induced acute lung inflammation; type: in vivo; conditions: LPS-induced acute lung inflammation model; nNIF given IP
# Source text: Thus, nNIF can reduce NETs similar to an FDA approved drug, such as dexamethasone.
# [4] = system: experimental sepsis; conditions: models of experimental sepsis; cited from earlier work
# [5] = system: PMNs isolated from healthy adults; test: poly (I:C)-induced NETosis in PMNs from healthy adults; type: cell-based, human; conditions: poly (I:C) 1 μg/mL, 2 hours
# [6] = system: PMNs isolated from COVID-19 patients; test: poly (I:C)-induced NETosis in PMNs from COVID-19 patients; type: cell-based, human; conditions: poly (I:C) 1 μg/mL, 2 hours
Substance,NETosis induced in vitro by COVID-19 plasma [1],Inhibition of COVID-19 plasma induced NETosis ([2]; high-inducing pooled plasma (>3-fold induction)),Inhibition of COVID-19 plasma induced NETosis ([2]; medium-inducing pooled plasma (2-3 fold induction)),In vivo efficacy: NETs or cells undergoing early NETosis (cytospin) [3],Disease severity [4],NETosis [4],Survival [4],NETosis induction in vitro [5],Increase in NETosis compared to elevated baseline levels [6] [fold]
KAVLTIDEKGTEAAGAMFLEAIPMSIPPEVKFNKPFVFLMIEQNTKSPLFMGKVVNPTQK (listed as Homo sapiens) [nNIF],significantly decreases NETosis; also recorded: inhibits NETs induced by COVID-19 plasma,clearly observed,clearly observed,very good efficacy,decreased disease severity,decrease in NETosis,improved survival,,
poly (I:C),,,,,,,,induces NETosis,2

# From US20230158108A1 (priority 2020, published 2023)
